Source: patent US5516790A, “Synthesis and application of alkyl-substituted dibenzofurans as antitumorigenic agents” (Texas A&M University System Technology Licensing Office, priority 1994, dated 1996)

Assays:
estrogen receptor (ER) = assay: Uterine estrogen receptor levels, hydroxyapatite assay (Example 8); type: in vivo, female Sprague-Dawley rats
Description: A second group of animals was similarly treated with corn oil, TCDD, MCDF, or TCDD plus MCDF, all administered in corn oil at 10 ml/kg and terminated 72 hours later.
(§1) The animals were terminated by cervical dislocation. Livers were perfused with ice-cold TEDG buffer (10 mM Tris-HCl, 1.5 mM EDTA-4Na, 1 mM dithiothreitol, 10% glycerol (v/v), pH 7.4). Following perfusion in situ, livers were removed, weighed, and homogenized in ice-cold TEDG buffer. Uteri were also removed, weighed, and homogenized in ice-cold buffer. The homogenates were then centrifuged at 800×g ([…]) for 15 minutes and the nuclear pellets were stored at -80° C. The supernatants were further centrifuged at 180,000× g for 1.5 hours. The cytosolic supernatant was also stored at -80° C. Estrogen and progesterone receptor levels were determined within 7 days.
(§2) Estrogen (ER) and progesterone (PR) receptor levels were determined by the hydroxyapatite assay as described by Clark et al. (J. Steroid Biochem. 16:323-328, 1982) and incorporated herein by reference. […] Following the incubations, samples were counted and specific binding was calculated by subtraction of nonspecific from total binding. Assuming one steroid molecule binds to one estrogen/progesterone receptor, the number of moles of receptor can be calculated given the specific activity of the radioligand. The data presented in Tables 1 through 6 are means ± SD using at least four animals per treatment group. Significant differences were determined by analysis of variance.

female rat uterus = assay: Antiestrogenic effect on uterine wet weight, immature female Sprague-Dawley rats (Example 8); type: in vivo
[1] = test system: progesterone receptor (PR); assay: Uterine progesterone receptor levels, hydroxyapatite assay (Example 8); type: in vivo, female Sprague-Dawley rats
Description: as §1, §2

[2] = Table 3: 50 μmol/kg + E-2 (2 × 10 μg/rat)
[3] = Table 3: compound alone, 50 μmol/kg (17β-estradiol: 2 × 10 μg/rat)
[4] = 150 μmol/kg + E-2 (2 × 10 μg/rat), run A
[5] = compound alone, 150 μmol/kg (17β-estradiol: 2 × 10 μg/rat), run A
[6] = 150 μmol/kg + E-2 (2 × 10 μg/rat), run B
[7] = compound alone, 150 μmol/kg (17β-estradiol: 2 × 10 μg/rat), run B
[8] = Table 2: 50 μmol/kg + E-2 (2 × 10 μg/rat)
[9] = Table 2: compound alone, 50 μmol/kg (17β-estradiol: 2 × 10 μg/rat)
[10] = dose-response, 2 μmol/kg + 17β-estradiol (2 × 10 μg/rat)
[11] = dose-response, 10 μmol/kg + 17β-estradiol (2 × 10 μg/rat)
[12] = dose-response, 25 μmol/kg + 17β-estradiol (2 × 10 μg/rat)
[13] = dose-response, 50 μmol/kg + 17β-estradiol (2 × 10 μg/rat)
[14] = dose-response, 150 μmol/kg + 17β-estradiol (2 × 10 μg/rat)

Cc1cc2c(cc1Br)oc1cc(Br)c(Br)cc12
Estrogen Receptor Levels, Cytosolic (estrogen receptor (ER); [2]): 133.3 ± 6.7 fmol/mg protein
Estrogen Receptor Levels, Nuclear (estrogen receptor (ER); [2]): 80.0 ± 4.8 fmol/mg protein
Estrogen Receptor Levels, Cytosolic (estrogen receptor (ER); [3]): 128.2 ± 7.7 fmol/mg protein
Estrogen Receptor Levels, Nuclear (estrogen receptor (ER); [3]): 64.3 ± 4.6 fmol/mg protein
Uterine Wet Weight (female rat uterus; [2]): 0.259 ± 0.020 % body wt
Uterine Wet Weight (female rat uterus; [3]): 0.153 ± 0.003 % body wt
Progesterone Receptor Levels, Cytosolic [1, 2]: 505 ± 35 fmol/mg protein
Progesterone Receptor Levels, Nuclear [1, 2]: 221 ± 15 fmol/mg protein
Progesterone Receptor Levels, Cytosolic [1, 3]: 362 ± 22 fmol/mg protein
Progesterone Receptor Levels, Nuclear [1, 3]: 270 ± 16 fmol/mg protein

Cc1cc2c(cc1Cl)oc1cc(Cl)c(Cl)cc12
Estrogen Receptor Levels, Cytosolic (estrogen receptor (ER); [2]): 85.7 ± 4.3 fmol/mg protein
Estrogen Receptor Levels, Nuclear (estrogen receptor (ER); [2]): 25.7 ± 1.3 fmol/mg protein
Estrogen Receptor Levels, Cytosolic (estrogen receptor (ER); [3]): 113.9 ± 5.7 fmol/mg protein
Estrogen Receptor Levels, Nuclear (estrogen receptor (ER); [3]): 47.8 ± 2.4 fmol/mg protein
Uterine Wet Weight (female rat uterus; [2]): 0.237 ± 0.007 % body wt
Uterine Wet Weight (female rat uterus; [3]): 0.138 ± 0.026 % body wt
Progesterone Receptor Levels, Cytosolic [1, 2]: 607 ± 36 fmol/mg protein
Progesterone Receptor Levels, Nuclear [1, 2]: 204 ± 12 fmol/mg protein
Progesterone Receptor Levels, Cytosolic [1, 3]: 554 ± 33 fmol/mg protein
Progesterone Receptor Levels, Nuclear [1, 3]: 177 ± 11 fmol/mg protein

Clc1cc(Cl)c2c(c1)oc1c(Cl)cc(Cl)cc12 [1,3,6,8-tetraCDF]
Estrogen Receptor Levels, Cytosolic (estrogen receptor (ER); [4]): 75.5 ± 17.3 fmol/mg protein
Estrogen Receptor Levels, Nuclear (estrogen receptor (ER); [4]): 16.1 ± 2.3 fmol/mg protein
Estrogen Receptor Levels, Cytosolic (estrogen receptor (ER); [5]): 55.2 ± 5.6 fmol/mg protein
Estrogen Receptor Levels, Nuclear (estrogen receptor (ER); [5]): 18.5 ± 3.8 fmol/mg protein
Uterine Wet Weight (female rat uterus; [4]): 0.187 ± 0.020 % body wt
Uterine Wet Weight (female rat uterus; [5]): 0.123 ± 0.004 % body wt
Progesterone Receptor Levels, Cytosolic [1, 4]: 798 ± 83 fmol/mg protein
Progesterone Receptor Levels, Nuclear [1, 4]: 291 ± 71 fmol/mg protein
Progesterone Receptor Levels, Cytosolic [1, 5]: 571 ± 49 fmol/mg protein
Progesterone Receptor Levels, Nuclear [1, 5]: 199 ± 46 fmol/mg protein

CCc1cc(Cl)cc2c1oc1cc(Cl)cc(Cl)c12 [6-Ethyl-1,3,8-triCDF]
Estrogen Receptor Levels, Cytosolic (estrogen receptor (ER); [6]): 104.3 ± 77.1 fmol/mg protein
Estrogen Receptor Levels, Nuclear (estrogen receptor (ER); [6]): 34.9 ± 1.8 fmol/mg protein
Estrogen Receptor Levels, Cytosolic (estrogen receptor (ER); [7]): 98.4 ± 5.5 fmol/mg protein
Estrogen Receptor Levels, Nuclear (estrogen receptor (ER); [7]): 33.9 ± 1.7 fmol/mg protein
Uterine Wet Weight (female rat uterus; [6]): 0.226 ± 0.013 % body wt
Uterine Wet Weight (female rat uterus; [7]): 0.128 ± 0.007 % body wt
Progesterone Receptor Levels, Cytosolic [1, 6]: 1601 ± 121 fmol/mg protein
Progesterone Receptor Levels, Nuclear [1, 6]: 277 ± 19 fmol/mg protein
Progesterone Receptor Levels, Cytosolic [1, 7]: 688 ± 49 fmol/mg protein
Progesterone Receptor Levels, Nuclear [1, 7]: 243 ± 17 fmol/mg protein

Cc1cc(Cl)cc2c1oc1c(Cl)c(Cl)c(Cl)cc12 [6-Methyl-2,3,4,8-tetraCDF, 6-Methyl-2,3,4,8-tetrachlorodibenzofuran]
Estrogen Receptor Levels, Cytosolic (estrogen receptor (ER); [8]): 176.3 ± 20.3 fmol/mg protein
Estrogen Receptor Levels, Nuclear (estrogen receptor (ER); [8]): 69.9 ± 9.4 fmol/mg protein
Estrogen Receptor Levels, Cytosolic (estrogen receptor (ER); [9]): 96.2 ± 11.2 fmol/mg protein
Estrogen Receptor Levels, Nuclear (estrogen receptor (ER); [9]): 31.3 ± 5.6 fmol/mg protein
ED40-60 for Inhibition, ERc (estrogen receptor (ER); cotreatment with 17β-estradiol): 2 µmol/kg
ED40-60 for Inhibition, ERn (estrogen receptor (ER); cotreatment with 17β-estradiol): 2 µmol/kg
Estrogen Receptor Levels, Cytosolic (estrogen receptor (ER); [10]): 86.7 ± 4.3 fmol/mg protein
Estrogen Receptor Levels, Nuclear (estrogen receptor (ER); [10]): 64.7 ± 3.9 fmol/mg protein
Estrogen Receptor Levels, Cytosolic (estrogen receptor (ER); [11]): 83.9 ± 4.2 fmol/mg protein
Estrogen Receptor Levels, Nuclear (estrogen receptor (ER); [11]): 53.8 ± 3.2 fmol/mg protein
Estrogen Receptor Levels, Cytosolic (estrogen receptor (ER); [12]): 75.1 ± 3.8 fmol/mg protein
Estrogen Receptor Levels, Nuclear (estrogen receptor (ER); [12]): 49.3 ± 3.0 fmol/mg protein
Estrogen Receptor Levels, Cytosolic (estrogen receptor (ER); [13]): 71.0 ± 3.6 fmol/mg protein
Estrogen Receptor Levels, Nuclear (estrogen receptor (ER); [13]): 40.0 ± 2.4 fmol/mg protein
Uterine Wet Weight (female rat uterus; [8]): 0.163 ± 0.019 % body wt
Uterine Wet Weight (female rat uterus; [9]): 0.109 ± 0.020 % body wt
Uterine Wet Weight (female rat uterus; [10]): 0.268 ± 0.044 % body wt
Uterine Wet Weight (female rat uterus; [11]): 0.221 ± 0.020 % body wt
Uterine Wet Weight (female rat uterus; [12]): 0.191 ± 0.006 % body wt
Uterine Wet Weight (female rat uterus; [13]): 0.158 ± 0.004 % body wt
Progesterone Receptor Levels, Cytosolic [1, 8]: 795 ± 52 fmol/mg protein
Progesterone Receptor Levels, Nuclear [1, 8]: 1081 ± 131 fmol/mg protein
Progesterone Receptor Levels, Cytosolic [1, 9]: 625 ± 71 fmol/mg protein
Progesterone Receptor Levels, Nuclear [1, 9]: 457 ± 58 fmol/mg protein
ED40-60 for Inhibition, PRc ([1]; cotreatment with 17β-estradiol): 2 µmol/kg
ED40-60 for Inhibition, PRn ([1]; cotreatment with 17β-estradiol): 10 µmol/kg
Progesterone Receptor Levels, Cytosolic [1, 10]: 1220 ± 85 fmol/mg protein
Progesterone Receptor Levels, Nuclear [1, 10]: 925 ± 74 fmol/mg protein
Progesterone Receptor Levels, Cytosolic [1, 11]: 970 ± 68 fmol/mg protein
Progesterone Receptor Levels, Nuclear [1, 11]: 765 ± 61 fmol/mg protein
Progesterone Receptor Levels, Cytosolic [1, 12]: 1000 ± 63 fmol/mg protein
Progesterone Receptor Levels, Nuclear [1, 12]: 645 ± 52 fmol/mg protein
Progesterone Receptor Levels, Cytosolic [1, 13]: 885 ± 53 fmol/mg protein
Progesterone Receptor Levels, Nuclear [1, 13]: 450 ± 36 fmol/mg protein

Cc1cc(Cl)cc2c1oc1cc(Cl)c(Cl)cc12 [6-Methyl-2,3,8-triCDF, 6-methyl-2,3,8-trichlorodibenzofuran]
Estrogen Receptor Levels, Cytosolic (estrogen receptor (ER); [8]): 105.3 ± 12.2 fmol/mg protein
Estrogen Receptor Levels, Nuclear (estrogen receptor (ER); [8]): 70.8 ± 8.1 fmol/mg protein
Estrogen Receptor Levels, Cytosolic (estrogen receptor (ER); [9]): 84.3 ± 9.3 fmol/mg protein
Estrogen Receptor Levels, Nuclear (estrogen receptor (ER); [9]): 55.8 ± 7.1 fmol/mg protein
Uterine Wet Weight (female rat uterus; [8]): 0.204 ± 0.020 % body wt
Uterine Wet Weight (female rat uterus; [9]): 0.125 ± 0.024 % body wt
Progesterone Receptor Levels, Cytosolic [1, 8]: 1062 ± 121 fmol/mg protein
Progesterone Receptor Levels, Nuclear [1, 8]: 622 ± 71 fmol/mg protein
Progesterone Receptor Levels, Cytosolic [1, 9]: 356 ± 65 fmol/mg protein
Progesterone Receptor Levels, Nuclear [1, 9]: 395 ± 52 fmol/mg protein

CCCc1cc(Cl)cc2c1oc1cc(Cl)cc(Cl)c12 [6-Propyl-1,3,8-Trichlorodibenzofuran]
Estrogen Receptor Levels, Cytosolic (estrogen receptor (ER); [11]): 105.5 ± 5.3 fmol/mg protein
Estrogen Receptor Levels, Nuclear (estrogen receptor (ER); [11]): 81.5 ± 4.9 fmol/mg protein
Estrogen Receptor Levels, Cytosolic (estrogen receptor (ER); [12]): 87.8 ± 4.4 fmol/mg protein
Estrogen Receptor Levels, Nuclear (estrogen receptor (ER); [12]): 56.6 ± 2.8 fmol/mg protein
Estrogen Receptor Levels, Cytosolic (estrogen receptor (ER); [13]): 66.7 ± 3.3 fmol/mg protein
Estrogen Receptor Levels, Nuclear (estrogen receptor (ER); [13]): 41.1 ± 2.1 fmol/mg protein
Estrogen Receptor Levels, Cytosolic (estrogen receptor (ER); [14]): 88.2 ± 4.4 fmol/mg protein
Estrogen Receptor Levels, Nuclear (estrogen receptor (ER); [14]): 35.6 ± 1.8 fmol/mg protein
Uterine Wet Weight (female rat uterus; [11]): 0.192 ± 0.013 % body wt
Uterine Wet Weight (female rat uterus; [12]): 0.170 ± 0.010 % body wt
Uterine Wet Weight (female rat uterus; [13]): 0.202 ± 0.014 % body wt
Uterine Wet Weight (female rat uterus; [14]): 0.216 ± 0.012 % body wt
Progesterone Receptor Levels, Cytosolic [1, 11]: 1501 ± 105 fmol/mg protein
Progesterone Receptor Levels, Nuclear [1, 11]: 850 ± 68 fmol/mg protein
Progesterone Receptor Levels, Cytosolic [1, 12]: 1055 ± 74 fmol/mg protein
Progesterone Receptor Levels, Nuclear [1, 12]: 515 ± 41 fmol/mg protein
Progesterone Receptor Levels, Cytosolic [1, 13]: 1105 ± 77 fmol/mg protein
Progesterone Receptor Levels, Nuclear [1, 13]: 510 ± 41 fmol/mg protein
Progesterone Receptor Levels, Cytosolic [1, 14]: 1190 ± 83 fmol/mg protein
Progesterone Receptor Levels, Nuclear [1, 14]: 660 ± 53 fmol/mg protein
